Experimental data: ChEMBL document CHEMBL1641588, “3-[Benzimidazo- and 3-[benzothiadiazoleimidazo-(1,2-c)quinazolin-5-yl]-2H-chromene-2-ones as potent antimicrobial agents” (2011)
Values after ≈ are worked out from the molar mass of the structure shown.

Assays:
Salmonella typhimurium [1] = assay: Antibacterial activity against Salmonella Typhimurium at 1000 ug/mL after 72 hrs by agar diffusion assay; type: functional, Salmonella enterica subsp. enterica serovar Typhimurium; settings: Salmonella enterica, read-out: IZ
Streptococcus pyogenes [2] = assay: Antibacterial activity against Streptococcus pyogenes at 1000 ug/mL after 72 hrs by agar diffusion assay; type: functional; settings: read-out: IZ
Bacillus subtilis [3] = assay: Antibacterial activity against Bacillus subtilis by liquid dilution method; type: functional
Escherichia coli [4] = assay: Antibacterial activity against Escherichia coli at 1000 ug/mL after 72 hrs by agar diffusion assay; type: functional; settings: read-out: IZ
Candida albicans [5] = assay: Antifungal activity against Candida albicans by liquid dilution method; type: functional
Klebsiella pneumoniae [6] = assay: Antibacterial activity against Klebsiella pneumoniae by liquid dilution method; type: functional
Salmonella typhimurium [7] = assay: Antibacterial activity against Salmonella Typhimurium by liquid dilution method; type: functional, Salmonella enterica subsp. enterica serovar Typhimurium; settings: Salmonella enterica
Staphylococcus aureus [8] = assay: Antibacterial activity against Staphylococcus aureus at 1000 ug/mL after 72 hrs by agar diffusion assay; type: functional; settings: read-out: IZ
Aspergillus niger [9] = assay: Antifungal activity against Aspergillus niger at 1000 ug/mL after 72 hrs by agar diffusion assay; type: functional; settings: read-out: IZ
Aspergillus niger [10] = assay: Antifungal activity against Aspergillus niger by liquid dilution method; type: functional
Escherichia coli [11] = assay: Antibacterial activity against Escherichia coli by liquid dilution method; type: functional
Bacillus subtilis [12] = assay: Antibacterial activity against Bacillus subtilis at 1000 ug/mL after 72 hrs by agar diffusion assay; type: functional; settings: read-out: IZ
Aspergillus flavus [13] = assay: Antifungal activity against Aspergillus flavus by liquid dilution method; type: functional
Streptococcus pyogenes [14] = assay: Antibacterial activity against Streptococcus pyogenes by liquid dilution method; type: functional
Aspergillus flavus [15] = assay: Antifungal activity against Aspergillus flavus at 1000 ug/mL after 72 hrs by agar diffusion assay; type: functional; settings: read-out: IZ
Klebsiella pneumoniae [16] = assay: Antibacterial activity against Klebsiella pneumoniae at 1000 ug/mL after 72 hrs by agar diffusion assay; type: functional; settings: read-out: IZ
Candida albicans [17] = assay: Antifungal activity against Candida albicans at 1000 ug/mL after 72 hrs by agar diffusion assay; type: functional; settings: read-out: IZ
Staphylococcus aureus [18] = assay: Antibacterial activity against Staphylococcus aureus by liquid dilution method; type: functional

Row | MIC (Bacillus subtilis [3]) | MIC (Candida albicans [5]) | MIC (Klebsiella pneumoniae [6]) | MIC (Salmonella typhimurium [7]) | MIC (Aspergillus niger [10]) | MIC (Escherichia coli [11]) | MIC (Aspergillus flavus [13]) | MIC (Streptococcus pyogenes [14]) | MIC (Staphylococcus aureus [18]) | Compound | zone of inhibition at 1000 µg/mL (Salmonella typhimurium [1]) | zone of inhibition at 1000 µg/mL (Streptococcus pyogenes [2]) | zone of inhibition at 1000 µg/mL (Escherichia coli [4]) | zone of inhibition at 1000 µg/mL (Staphylococcus aureus [8]) | zone of inhibition at 1000 µg/mL (Aspergillus niger [9]) | zone of inhibition at 1000 µg/mL (Bacillus subtilis [12]) | zone of inhibition at 1000 µg/mL (Aspergillus flavus [15]) | zone of inhibition at 1000 µg/mL (Klebsiella pneumoniae [16]) | zone of inhibition at 1000 µg/mL (Candida albicans [17])
1 | 45 µg/mL (≈ 124 µM) | 35 µg/mL (≈ 96.3 µM) | 30 µg/mL (≈ 82.6 µM) | 25 µg/mL (≈ 68.8 µM) | 25 µg/mL (≈ 68.8 µM) | 25 µg/mL (≈ 68.8 µM) | 40 µg/mL (≈ 110 µM) | 30 µg/mL (≈ 82.6 µM) | 35 µg/mL (≈ 96.3 µM) | O=c1oc2ccccc2cc1-c1nc2ccccc2c2nc3ccccc3n12 | 32 mm | 23 mm | 38 mm | 36 mm | 34 mm | 31 mm | 32 mm | 34 mm | 27 mm
2 | 40 µg/mL (≈ 90.4 µM) | 40 µg/mL (≈ 90.4 µM) | 25 µg/mL (≈ 56.5 µM) | 35 µg/mL (≈ 79.1 µM) | 40 µg/mL (≈ 90.4 µM) | 45 µg/mL (≈ 102 µM) | 10 µg/mL (≈ 22.6 µM) | 35 µg/mL (≈ 79.1 µM) | 40 µg/mL (≈ 90.4 µM) | O=c1oc2c(Br)cccc2cc1-c1nc2ccccc2c2nc3ccccc3n12 | 29 mm | 27 mm | 28 mm | 39 mm | 37 mm | 28 mm | 45 mm | 31 mm | 32 mm
3 | 10 µg/mL (≈ 23.1 µM) | 50 µg/mL (≈ 116 µM) | 5 µg/mL (≈ 11.6 µM) | 2.5 µg/mL (≈ 5.78 µM) | 35 µg/mL (≈ 81 µM) | 10 µg/mL (≈ 23.1 µM) | 35 µg/mL (≈ 81 µM) | 10 µg/mL (≈ 23.1 µM) | 2.5 µg/mL (≈ 5.78 µM) | O=c1oc2c(Cl)cc(Cl)cc2cc1-c1nc2ccccc2c2nc3ccccc3n12 | 48 mm | 38 mm | 44 mm | 50 mm | 38 mm | 42 mm | 38 mm | 47 mm | 39 mm
4 | 50 µg/mL (≈ 95.9 µM) | 15 µg/mL (≈ 28.8 µM) | 35 µg/mL (≈ 67.2 µM) | 30 µg/mL (≈ 57.6 µM) | 20 µg/mL (≈ 38.4 µM) | 15 µg/mL (≈ 28.8 µM) | 15 µg/mL (≈ 28.8 µM) | 20 µg/mL (≈ 38.4 µM) | 40 µg/mL (≈ 76.8 µM) | O=c1oc2c(Br)cc(Br)cc2cc1-c1nc2ccccc2c2nc3ccccc3n12 | 36 mm | 36 mm | 41 mm | 39 mm | 48 mm | 34 mm | 46 mm | 38 mm | 41 mm
5 | 45 µg/mL (≈ 119 µM) | 45 µg/mL (≈ 119 µM) | 30 µg/mL (≈ 79.5 µM) | 20 µg/mL (≈ 53 µM) | 50 µg/mL (≈ 132 µM) | 40 µg/mL (≈ 106 µM) | 35 µg/mL (≈ 92.7 µM) | 45 µg/mL (≈ 119 µM) | 30 µg/mL (≈ 79.5 µM) | Cc1cccc2cc(-c3nc4ccccc4c4nc5ccccc5n34)c(=O)oc12 | 35 mm | 24 mm | 32 mm | 32 mm | 27 mm | 30 mm | 35 mm | 31 mm | 32 mm
6 | 10 µg/mL (≈ 24.5 µM) | 50 µg/mL (≈ 122 µM) | 40 µg/mL (≈ 97.9 µM) | 25 µg/mL (≈ 61.2 µM) | 45 µg/mL (≈ 110 µM) | 30 µg/mL (≈ 73.5 µM) | 45 µg/mL (≈ 110 µM) | 40 µg/mL (≈ 97.9 µM) | 35 µg/mL (≈ 85.7 µM) | O=c1oc2ccc([N+](=O)[O-])cc2cc1-c1nc2ccccc2c2nc3ccccc3n12 | 32 mm | 28 mm | 35 mm | 24 mm | 29 mm | 27 mm | 30 mm | 29 mm | 27 mm
7 | 50 µg/mL (≈ 119 µM) | 45 µg/mL (≈ 107 µM) | 35 µg/mL (≈ 83 µM) | 30 µg/mL (≈ 71.2 µM) | 40 µg/mL (≈ 94.9 µM) | 45 µg/mL (≈ 107 µM) | 35 µg/mL (≈ 83 µM) | 45 µg/mL (≈ 107 µM) | 50 µg/mL (≈ 119 µM) | O=c1oc2ccccc2cc1-c1nc2ccccc2c2nc3c4nsnc4ccc3n12 | 24 mm | 22 mm | 26 mm | 31 mm | 22 mm | 32 mm | 35 mm | 27 mm | 26 mm
8 | 40 µg/mL (≈ 79.9 µM) | 35 µg/mL (≈ 70 µM) | 25 µg/mL (≈ 50 µM) | 35 µg/mL (≈ 70 µM) | 35 µg/mL (≈ 70 µM) | 35 µg/mL (≈ 70 µM) | 50 µg/mL (≈ 99.9 µM) | 40 µg/mL (≈ 79.9 µM) | 30 µg/mL (≈ 60 µM) | O=c1oc2c(Br)cccc2cc1-c1nc2ccccc2c2nc3c4nsnc4ccc3n12 | 29 mm | 23 mm | 31 mm | 35 mm | 31 mm | 29 mm | 33 mm | 30 mm | 29 mm
9 | 45 µg/mL (≈ 91.8 µM) | 45 µg/mL (≈ 91.8 µM) | 35 µg/mL (≈ 71.4 µM) | 25 µg/mL (≈ 51 µM) | 40 µg/mL (≈ 81.6 µM) | 30 µg/mL (≈ 61.2 µM) | 50 µg/mL (≈ 102 µM) | 35 µg/mL (≈ 71.4 µM) | 35 µg/mL (≈ 71.4 µM) | O=c1oc2c(Cl)cc(Cl)cc2cc1-c1nc2ccccc2c2nc3c4nsnc4ccc3n12 | 31 mm | 20 mm | 32 mm | 39 mm | 33 mm | 34 mm | 29 mm | 34 mm | 26 mm
10 | 10 µg/mL (≈ 17.3 µM) | 40 µg/mL (≈ 69.1 µM) | 5 µg/mL (≈ 8.63 µM) | 2.5 µg/mL (≈ 4.32 µM) | 25 µg/mL (≈ 43.2 µM) | 10 µg/mL (≈ 17.3 µM) | 35 µg/mL (≈ 60.4 µM) | 15 µg/mL (≈ 25.9 µM) | 5 µg/mL (≈ 8.63 µM) | O=c1oc2c(Br)cc(Br)cc2cc1-c1nc2ccccc2c2nc3c4nsnc4ccc3n12 | 45 mm | 37 mm | 42 mm | 48 mm | 34 mm | 41 mm | 37 mm | 46 mm | 32 mm
11 | 50 µg/mL (≈ 115 µM) | 35 µg/mL (≈ 80.4 µM) | 25 µg/mL (≈ 57.4 µM) | 30 µg/mL (≈ 68.9 µM) | 50 µg/mL (≈ 115 µM) | 45 µg/mL (≈ 103 µM) | 40 µg/mL (≈ 91.9 µM) | 45 µg/mL (≈ 103 µM) | 40 µg/mL (≈ 91.9 µM) | Cc1cccc2cc(-c3nc4ccccc4c4nc5c6nsnc6ccc5n34)c(=O)oc12 | 29 mm | 24 mm | 20 mm | 29 mm | 28 mm | 26 mm | 33 mm | 32 mm | 30 mm
12 | 45 µg/mL (≈ 96.5 µM) | 30 µg/mL (≈ 64.3 µM) | 45 µg/mL (≈ 96.5 µM) | 35 µg/mL (≈ 75 µM) | 35 µg/mL (≈ 75 µM) | 35 µg/mL (≈ 75 µM) | 25 µg/mL (≈ 53.6 µM) | 30 µg/mL (≈ 64.3 µM) | 35 µg/mL (≈ 75 µM) | O=c1oc2ccc([N+](=O)[O-])cc2cc1-c1nc2ccccc2c2nc3c4nsnc4ccc3n12 | 29 mm | 29 mm | 31 mm | 27 mm | 36 mm | 30 mm | 44 mm | 27 mm | 38 mm

Row | Compound | MIC (Bacillus subtilis [3]) | MIC (Candida albicans [5]) | MIC (Klebsiella pneumoniae [6]) | MIC (Salmonella typhimurium [7]) | MIC (Aspergillus niger [10]) | MIC (Escherichia coli [11]) | MIC (Aspergillus flavus [13]) | MIC (Streptococcus pyogenes [14]) | MIC (Staphylococcus aureus [18]) | zone of inhibition at 1000 µg/mL (Salmonella typhimurium [1]) | zone of inhibition at 1000 µg/mL (Streptococcus pyogenes [2]) | zone of inhibition at 1000 µg/mL (Escherichia coli [4]) | zone of inhibition at 1000 µg/mL (Staphylococcus aureus [8]) | zone of inhibition at 1000 µg/mL (Aspergillus niger [9]) | zone of inhibition at 1000 µg/mL (Bacillus subtilis [12]) | zone of inhibition at 1000 µg/mL (Aspergillus flavus [15]) | zone of inhibition at 1000 µg/mL (Klebsiella pneumoniae [16]) | zone of inhibition at 1000 µg/mL (Candida albicans [17])
13 | CC1(C)S[C@@H]2[C@H](NC(=O)[C@H](N)c3ccccc3)C(=O)N2[C@H]1C(=O)O [AMPICILLIN] | 20 µg/mL (≈ 57.2 µM) |  | 10 µg/mL (≈ 28.6 µM) | 10 µg/mL (≈ 28.6 µM) |  | 15 µg/mL (≈ 42.9 µM) |  | 25 µg/mL (≈ 71.5 µM) | 10 µg/mL (≈ 28.6 µM) | 45 mm | 35 mm | 40 mm | 48 mm |  | 39 mm |  | 45 mm | 
14 | CC(=O)N1CCN(c2ccc(OCC3COC(Cn4ccnc4)(c4ccc(Cl)cc4Cl)O3)cc2)CC1 (centres undefined) [KETOCONAZOLE] |  | 25 µg/mL (≈ 47 µM) |  |  | 15 µg/mL (≈ 28.2 µM) |  | 15 µg/mL (≈ 28.2 µM) |  |  |  |  |  |  | 45 mm |  | 43 mm |  | 40 mm
